Target: Potassium voltage-gated channel subfamily KQT member 2 (Homo sapiens, UniProt O43526)
Assay: SyncroPatch 384 (Nanion) High Throughput Electrophysiology
Protocol: Human Kv7.2, Kv7.4 or Kv7.5/7.3 channels were evaluated using a voltage protocol in which cells were voltage-clamped at a holding potential of -60 mV. Potassium currents were continuously activated with a series of three voltage steps to -30 mV for 3 seconds, 40 mV for 1 second and -90 mV for 4 seconds with 12 seconds between successive voltage sweeps. Potassium currents were measured from the -90 mV repolarizing step. Baseline current was assessed for 3.5 minutes prior to the addition of 5.6 uM zinc pyrithione (1 uM for Kv7.4). Kv7.2, Kv7.4 or Kv7.5/7.3 current in the presence of zinc pyrithione was acquired over five minutes to allow channels to reach steady state activity prior to addition of test agents. Channel activity was monitored for three minutes preceding the addition of 30 uM ML-213 (3 minutes) to achieve maximum activation.

Sequence of Potassium voltage-gated channel subfamily KQT member 2 (O43526 whole entry): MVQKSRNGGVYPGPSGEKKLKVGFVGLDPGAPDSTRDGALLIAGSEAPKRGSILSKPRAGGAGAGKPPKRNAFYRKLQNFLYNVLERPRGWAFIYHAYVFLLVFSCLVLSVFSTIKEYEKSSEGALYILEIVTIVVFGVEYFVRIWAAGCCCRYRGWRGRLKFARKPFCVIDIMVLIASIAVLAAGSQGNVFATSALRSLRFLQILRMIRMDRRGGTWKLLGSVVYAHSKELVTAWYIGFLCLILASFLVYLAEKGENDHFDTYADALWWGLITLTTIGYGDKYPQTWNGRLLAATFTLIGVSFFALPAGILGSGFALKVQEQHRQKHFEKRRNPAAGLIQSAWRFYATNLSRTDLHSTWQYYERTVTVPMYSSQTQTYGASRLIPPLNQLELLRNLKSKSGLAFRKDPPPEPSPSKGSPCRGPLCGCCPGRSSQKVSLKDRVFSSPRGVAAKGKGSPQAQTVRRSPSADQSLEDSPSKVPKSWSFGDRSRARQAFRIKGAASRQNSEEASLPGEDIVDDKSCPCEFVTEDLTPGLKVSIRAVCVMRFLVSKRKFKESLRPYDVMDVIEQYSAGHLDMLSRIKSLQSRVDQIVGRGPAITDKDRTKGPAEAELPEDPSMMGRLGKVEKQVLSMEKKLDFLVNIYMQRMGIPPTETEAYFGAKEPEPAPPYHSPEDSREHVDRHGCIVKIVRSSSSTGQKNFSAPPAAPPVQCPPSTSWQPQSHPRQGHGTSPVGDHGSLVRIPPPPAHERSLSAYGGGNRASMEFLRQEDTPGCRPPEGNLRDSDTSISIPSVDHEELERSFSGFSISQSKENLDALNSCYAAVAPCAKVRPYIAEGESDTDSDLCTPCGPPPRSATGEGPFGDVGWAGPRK

## O=C(NCc1ccnc(-n2cccn2)c1)NC1COC2(CCCC2)C1 (stereo unspecified) [US20240316020, Example 1]
  EC50: 3.63 µM
